Assays:
[1] = biological target: butyrylcholinesterase (BuChE) (Homo sapiens, UniProt P06276); test: biochemical; type: biochemical; conditions: for IC50: read-out: BuChE IC50 (µM ± SEM)
Experimental: (§1) The AChE/(BuChE) inhibitory test was measured using a spectrophotometric method developed by Elman et al.. A buffer solution containing phosphate (pH 8.0) of volume 140 μL; 20 μL of each AChE/BuChE solution; and 20 μL of the test sample were incubated at room temperature for 15 min. […] was used to start the reaction, followed by the addition of DTNB. ATCh or BTCh hydrolyzed the reaction of DTNB with thiocholine for 15 min; unrestricted by AChE and BuChE enzymatic hydrolysis. […] Each sample’s inhibitory activity was measured in terms of IC50 ([…]) or μM. For all substances, the IC50 values were derived using a generic graph.

[2] = biological target: acetylcholinesterase (AChE) (Homo sapiens, UniProt P22303); test: biochemical; type: biochemical; conditions: for IC50: read-out: AChE IC50 (µM ± SEM)
acetylcholinesterase (AChE), sequence (P22303 32-614, species assumed): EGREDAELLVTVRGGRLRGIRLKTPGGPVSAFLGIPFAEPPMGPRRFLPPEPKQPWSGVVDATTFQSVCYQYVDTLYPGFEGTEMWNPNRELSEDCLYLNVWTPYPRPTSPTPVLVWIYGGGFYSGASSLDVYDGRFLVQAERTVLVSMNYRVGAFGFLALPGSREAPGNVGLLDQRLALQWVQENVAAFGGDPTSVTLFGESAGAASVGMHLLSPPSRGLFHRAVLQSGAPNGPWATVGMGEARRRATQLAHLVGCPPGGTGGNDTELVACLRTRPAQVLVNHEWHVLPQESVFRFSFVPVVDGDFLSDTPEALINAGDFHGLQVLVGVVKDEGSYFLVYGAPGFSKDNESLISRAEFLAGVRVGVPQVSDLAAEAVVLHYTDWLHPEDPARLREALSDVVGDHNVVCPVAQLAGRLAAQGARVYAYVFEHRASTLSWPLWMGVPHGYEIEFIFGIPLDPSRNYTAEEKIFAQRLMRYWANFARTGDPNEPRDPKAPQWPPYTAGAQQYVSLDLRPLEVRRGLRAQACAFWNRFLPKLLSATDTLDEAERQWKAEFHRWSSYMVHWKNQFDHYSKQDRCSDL
Experimental: as §1

butyrylcholinesterase (BuChE), sequence (P06276 29-602): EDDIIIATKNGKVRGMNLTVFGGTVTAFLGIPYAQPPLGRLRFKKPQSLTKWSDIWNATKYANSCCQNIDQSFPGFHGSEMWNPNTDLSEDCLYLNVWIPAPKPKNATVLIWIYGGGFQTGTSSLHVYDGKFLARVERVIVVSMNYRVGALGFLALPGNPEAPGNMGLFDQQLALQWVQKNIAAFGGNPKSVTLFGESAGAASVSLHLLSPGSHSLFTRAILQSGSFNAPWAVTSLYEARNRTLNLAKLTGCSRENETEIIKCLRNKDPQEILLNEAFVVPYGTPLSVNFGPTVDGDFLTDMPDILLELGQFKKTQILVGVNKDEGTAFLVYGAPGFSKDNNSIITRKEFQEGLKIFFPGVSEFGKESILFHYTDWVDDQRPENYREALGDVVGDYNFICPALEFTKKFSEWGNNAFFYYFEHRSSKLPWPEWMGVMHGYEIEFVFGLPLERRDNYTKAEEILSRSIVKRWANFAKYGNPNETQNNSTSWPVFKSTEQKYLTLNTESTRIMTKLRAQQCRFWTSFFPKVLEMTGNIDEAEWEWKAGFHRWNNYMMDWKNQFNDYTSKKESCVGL

Structure (SMILES) | IC50 [1] [µM] | IC50 [2] [µM] | inhibition of butyrylcholinesterase, in words [1] | inhibition of acetylcholinesterase, in words [2]
COc1ccc2[nH]c(-c3ccc(O)cc3)nc2c1 [Compound 15] | 0.9 ± 0.001 | 0.8 ± 0.001 |  | 
COc1ccc2[nH]c(-c3cc(Cl)cc(Cl)c3O)nc2c1 [Compound 10] | 0.4 ± 0.001 | 0.1 ± 0.001 |  | 
COc1ccc(-c2nc3cc(OC)ccc3[nH]2)c(OC)c1 [Compound 19] | 6.8 ± 0.2 | 9.2 ± 0.2 |  | 
COc1ccc2[nH]c(-c3ccc([N+](=O)[O-])cc3)nc2c1 [Compound 1, 5-Methoxy-2-(4-Nitrophenyl)-1H-Benzo[d]-Imidazole] | 1.6 ± 0.1 | 2.1 ± 0.1 |  | 
COc1ccc2[nH]c(-c3cc(OC)c(Br)cc3OC)nc2c1 [Compound 20] |  |  | did not show any activity | did not show any activity
COc1ccc2[nH]c(-c3ccc(OC)c(O)c3)nc2c1 [Compound 9] | 2.1 ± 0.1 | 2.3 ± 0.1 |  | 
COc1ccc2[nH]c(-c3c4ccccc4cc4ccccc34)nc2c1 [Compound 13] |  |  | did not show any activity | did not show any activity
COc1ccc2[nH]c(-c3cccc([N+](=O)[O-])c3)nc2c1 [Compound 2, 5-Methoxy-2-(3-Nitrophenyl)-1H-Benzo[d]-Imidazole] | 5.9 ± 0.1 | 5.1 ± 0.1 |  | 
COc1ccc2[nH]c(-c3ccc(OCc4ccccc4)cc3)nc2c1 [Compound 7] | 5.9 ± 0.1 | 5.8 ± 0.1 |  | 
COc1ccc2[nH]c(-c3ccc(Cl)cc3Cl)nc2c1 [Compound 11] | 0.3 ± 0.001 | 0.2 ± 0.001 |  | 
COc1ccc2[nH]c(-c3cc(Br)ccc3OC)nc2c1 [Compound 17] | 3.9 ± 0.1 | 6.1 ± 0.1 |  | 
COc1ccc2nc(-c3ccc(-c4nc5ccc(OC)cc5[nH]4)cc3)[nH]c2c1 [Compound 12] | 5.8 ± 0.1 | 5.1 ± 0.1 |  | 
COc1ccc2[nH]c(-c3cccc(O)c3)nc2c1 [Compound 16] | 2.1 ± 0.1 | 1.3 ± 0.1 |  | 
COc1ccc2[nH]c(-c3c(O)ccc4ccccc34)nc2c1 [Compound 14] |  |  | did not show any activity | did not show any activity
CCOc1ccc(-c2nc3cc(OC)ccc3[nH]2)cc1OC [Compound 18] | 9.8 ± 0.3 | 11.3 ± 0.3 |  | 
COc1ccc2[nH]c(-c3ccc(Cl)c(Cl)c3)nc2c1 [Compound 3] | 0.08 ± 0.001 | 0.05 ± 0.001 |  | 
COc1ccc2[nH]c(-c3ccc4ccccc4c3)nc2c1 [Compound 5] | 25.8 ± 0.4 | 25.3 ± 0.4 |  | 
COc1ccc2[nH]c(-c3ccc(N(C)C)cc3)nc2c1 [Compound 8] | 4.7 ± 0.1 | 6.8 ± 0.2 |  | 
COc1ccc2[nH]c(-c3ccccc3[N+](=O)[O-])nc2c1 [Compound 4] | 3.6 ± 0.1 | 3.4 ± 0.1 |  | 
COc1ccc2[nH]c(-c3ccc(C)cc3C)nc2c1 [Compound 6] | 5.1 ± 0.2 | 4.1 ± 0.1 |  | 
COc1ccc2[nH]c(-c3cc(OC)c(O)c(OC)c3)nc2c1 [Compound 21] | 2.7 ± 0.1 | 2.1 ± 0.1 |  | 

From publication PMC9958709 (Pharmaceuticals, 2023)
